# Experimental data from BigSolDB 2.1.
structure (smiles),measurement,setting,value
CN(C)CCC=C1c2ccccc2CCc2ccccc21.Cl,solubility (mole fraction),"in 2-butoxyethanol, 278.15 K",0.0451
same,solubility (mole fraction),"in 2-butoxyethanol, 283.15 K",0.0494
same,solubility (mole fraction),"in 2-butoxyethanol, 288.15 K",0.0531
same,solubility (mole fraction),"in 2-butoxyethanol, 293.15 K",0.0595
same,solubility (mole fraction),"in 2-butoxyethanol, 298.15 K",0.066
same,solubility (mole fraction),"in 2-butoxyethanol, 303.15 K",0.0722
same,solubility (mole fraction),"in 2-butoxyethanol, 308.15 K",0.0793
same,solubility (mole fraction),"in 2-butoxyethanol, 313.15 K",0.0864
same,solubility (mole fraction),"in 2-butoxyethanol, 318.15 K",0.0942
same,solubility (mole fraction),"in 2-butoxyethanol, 323.15 K",0.102
same,solubility (mole fraction),"in 2-ethoxyethanol, 278.15 K",0.084
same,solubility (mole fraction),"in 2-ethoxyethanol, 283.15 K",0.0895
same,solubility (mole fraction),"in 2-ethoxyethanol, 288.15 K",0.0954
same,solubility (mole fraction),"in 2-ethoxyethanol, 293.15 K",0.101
same,solubility (mole fraction),"in 2-ethoxyethanol, 298.15 K",0.108
same,solubility (mole fraction),"in 2-ethoxyethanol, 303.15 K",0.115
same,solubility (mole fraction),"in 2-ethoxyethanol, 308.15 K",0.123
same,solubility (mole fraction),"in 2-ethoxyethanol, 313.15 K",0.132
same,solubility (mole fraction),"in 2-ethoxyethanol, 318.15 K",0.141
same,solubility (mole fraction),"in 2-ethoxyethanol, 323.15 K",0.151
same,solubility (mole fraction),"in 2-methoxyethanol, 278.15 K",0.127
same,solubility (mole fraction),"in 2-methoxyethanol, 283.15 K",0.132
same,solubility (mole fraction),"in 2-methoxyethanol, 288.15 K",0.138
same,solubility (mole fraction),"in 2-methoxyethanol, 293.15 K",0.143
same,solubility (mole fraction),"in 2-methoxyethanol, 298.15 K",0.149
same,solubility (mole fraction),"in 2-methoxyethanol, 303.15 K",0.155
same,solubility (mole fraction),"in 2-methoxyethanol, 308.15 K",0.162
same,solubility (mole fraction),"in 2-methoxyethanol, 313.15 K",0.169
same,solubility (mole fraction),"in 2-methoxyethanol, 318.15 K",0.177
same,solubility (mole fraction),"in 2-methoxyethanol, 323.15 K",0.185
same,solubility (mole fraction),"in 2-propoxyethanol, 278.15 K",0.06
same,solubility (mole fraction),"in 2-propoxyethanol, 283.15 K",0.0641
same,solubility (mole fraction),"in 2-propoxyethanol, 288.15 K",0.0686
same,solubility (mole fraction),"in 2-propoxyethanol, 293.15 K",0.075
same,solubility (mole fraction),"in 2-propoxyethanol, 298.15 K",0.0814
same,solubility (mole fraction),"in 2-propoxyethanol, 303.15 K",0.0881
same,solubility (mole fraction),"in 2-propoxyethanol, 308.15 K",0.0955
same,solubility (mole fraction),"in 2-propoxyethanol, 313.15 K",0.103
same,solubility (mole fraction),"in 2-propoxyethanol, 318.15 K",0.111
same,solubility (mole fraction),"in 2-propoxyethanol, 323.15 K",0.119
same,solubility (mole fraction),"in DMF, 278.15 K",0.0295
same,solubility (mole fraction),"in DMF, 283.15 K",0.0323
same,solubility (mole fraction),"in DMF, 288.15 K",0.0354
same,solubility (mole fraction),"in DMF, 293.15 K",0.0388
same,solubility (mole fraction),"in DMF, 298.15 K",0.0423
same,solubility (mole fraction),"in DMF, 303.15 K",0.0466
same,solubility (mole fraction),"in DMF, 308.15 K",0.0509
same,solubility (mole fraction),"in DMF, 313.15 K",0.0557
same,solubility (mole fraction),"in DMF, 318.15 K",0.0611
same,solubility (mole fraction),"in DMF, 323.15 K",0.0674
same,solubility (mole fraction),"in NMP, 278.15 K",0.0311
same,solubility (mole fraction),"in NMP, 283.15 K",0.0342
same,solubility (mole fraction),"in NMP, 288.15 K",0.0372
same,solubility (mole fraction),"in NMP, 293.15 K",0.0412
same,solubility (mole fraction),"in NMP, 298.15 K",0.0448
same,solubility (mole fraction),"in NMP, 303.15 K",0.0492
same,solubility (mole fraction),"in NMP, 308.15 K",0.0543
same,solubility (mole fraction),"in NMP, 313.15 K",0.0594
same,solubility (mole fraction),"in NMP, 318.15 K",0.0652
same,solubility (mole fraction),"in NMP, 323.15 K",0.0716
same,solubility (mole fraction),"in ethanol, 278.15 K",0.0337
same,solubility (mole fraction),"in ethanol, 283.15 K",0.0423
same,solubility (mole fraction),"in ethanol, 288.15 K",0.0528
same,solubility (mole fraction),"in ethanol, 293.15 K",0.0653
same,solubility (mole fraction),"in ethanol, 298.15 K",0.0794
same,solubility (mole fraction),"in ethanol, 303.15 K",0.0938
same,solubility (mole fraction),"in ethanol, 308.15 K",0.108
same,solubility (mole fraction),"in ethanol, 313.15 K",0.122
same,solubility (mole fraction),"in ethanol, 318.15 K",0.136
same,solubility (mole fraction),"in ethanol, 323.15 K",0.148
same,solubility (mole fraction),"in methanol, 278.15 K",0.144
same,solubility (mole fraction),"in methanol, 283.15 K",0.152
same,solubility (mole fraction),"in methanol, 288.15 K",0.16
same,solubility (mole fraction),"in methanol, 293.15 K",0.168
same,solubility (mole fraction),"in methanol, 298.15 K",0.175
same,solubility (mole fraction),"in methanol, 303.15 K",0.183
same,solubility (mole fraction),"in methanol, 308.15 K",0.189
same,solubility (mole fraction),"in methanol, 313.15 K",0.196
same,solubility (mole fraction),"in methanol, 318.15 K",0.202
same,solubility (mole fraction),"in methanol, 323.15 K",0.207
same,solubility (mole fraction),"in n-butanol, 278.15 K",0.0148
same,solubility (mole fraction),"in n-butanol, 283.15 K",0.0187
same,solubility (mole fraction),"in n-butanol, 288.15 K",0.0242
same,solubility (mole fraction),"in n-butanol, 293.15 K",0.0316
same,solubility (mole fraction),"in n-butanol, 298.15 K",0.0405
same,solubility (mole fraction),"in n-butanol, 303.15 K",0.0508
same,solubility (mole fraction),"in n-butanol, 308.15 K",0.0628
same,solubility (mole fraction),"in n-butanol, 313.15 K",0.0765
same,solubility (mole fraction),"in n-butanol, 318.15 K",0.091
same,solubility (mole fraction),"in n-butanol, 323.15 K",0.105
same,solubility (mole fraction),"in n-heptanol, 278.15 K",0.0101
same,solubility (mole fraction),"in n-heptanol, 283.15 K",0.0124
same,solubility (mole fraction),"in n-heptanol, 288.15 K",0.0151
same,solubility (mole fraction),"in n-heptanol, 293.15 K",0.0184
same,solubility (mole fraction),"in n-heptanol, 298.15 K",0.0225
same,solubility (mole fraction),"in n-heptanol, 303.15 K",0.0274
same,solubility (mole fraction),"in n-heptanol, 308.15 K",0.0333
same,solubility (mole fraction),"in n-heptanol, 313.15 K",0.0402
same,solubility (mole fraction),"in n-heptanol, 318.15 K",0.0484
same,solubility (mole fraction),"in n-heptanol, 323.15 K",0.0581
same,solubility (mole fraction),"in n-hexanol, 278.15 K",0.0116
same,solubility (mole fraction),"in n-hexanol, 283.15 K",0.0145
same,solubility (mole fraction),"in n-hexanol, 288.15 K",0.0176
same,solubility (mole fraction),"in n-hexanol, 293.15 K",0.0217
same,solubility (mole fraction),"in n-hexanol, 298.15 K",0.027
same,solubility (mole fraction),"in n-hexanol, 303.15 K",0.0332
same,solubility (mole fraction),"in n-hexanol, 308.15 K",0.0407
same,solubility (mole fraction),"in n-hexanol, 313.15 K",0.0492
same,solubility (mole fraction),"in n-hexanol, 318.15 K",0.0595
same,solubility (mole fraction),"in n-hexanol, 323.15 K",0.0712
same,solubility (mole fraction),"in n-octanol, 278.15 K",0.00215
same,solubility (mole fraction),"in n-octanol, 283.15 K",0.00267
same,solubility (mole fraction),"in n-octanol, 288.15 K",0.00322
same,solubility (mole fraction),"in n-octanol, 293.15 K",0.00388
same,solubility (mole fraction),"in n-octanol, 298.15 K",0.00471
same,solubility (mole fraction),"in n-octanol, 303.15 K",0.00568
same,solubility (mole fraction),"in n-octanol, 308.15 K",0.00688
same,solubility (mole fraction),"in n-octanol, 313.15 K",0.00824
same,solubility (mole fraction),"in n-octanol, 318.15 K",0.00991
same,solubility (mole fraction),"in n-octanol, 323.15 K",0.012
same,solubility (mole fraction),"in n-pentanol, 278.15 K",0.0127
same,solubility (mole fraction),"in n-pentanol, 283.15 K",0.0162
same,solubility (mole fraction),"in n-pentanol, 288.15 K",0.02
same,solubility (mole fraction),"in n-pentanol, 293.15 K",0.025
same,solubility (mole fraction),"in n-pentanol, 298.15 K",0.0321
same,solubility (mole fraction),"in n-pentanol, 303.15 K",0.04
same,solubility (mole fraction),"in n-pentanol, 308.15 K",0.0497
same,solubility (mole fraction),"in n-pentanol, 313.15 K",0.0613
same,solubility (mole fraction),"in n-pentanol, 318.15 K",0.0743
same,solubility (mole fraction),"in n-pentanol, 323.15 K",0.0887
same,solubility (mole fraction),"in n-propanol, 278.15 K",0.0218
same,solubility (mole fraction),"in n-propanol, 283.15 K",0.028
same,solubility (mole fraction),"in n-propanol, 288.15 K",0.0357
same,solubility (mole fraction),"in n-propanol, 293.15 K",0.0453
same,solubility (mole fraction),"in n-propanol, 298.15 K",0.0572
same,solubility (mole fraction),"in n-propanol, 303.15 K",0.0708
same,solubility (mole fraction),"in n-propanol, 308.15 K",0.0855
same,solubility (mole fraction),"in n-propanol, 313.15 K",0.101
same,solubility (mole fraction),"in n-propanol, 318.15 K",0.117
same,solubility (mole fraction),"in n-propanol, 323.15 K",0.131
